# Assay results: PubChem BioAssay (NCI)
#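 Following 48 hours of exposure in 96-well plates, responses at five concentrations were used to interpolate endpoints linearly. Definition used: TGI = concentration required for complete inhibition of growth.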
# Experiments:
# Assay in all cases: DTP human tumour cell line panel, 48 h
# LXFL 529 NSCLC = tested on: LXFL 529 NSCLC
# CCRF-CEM leukemia = tested on: CCRF-CEM leukemia
# OVCAR-3 ovarian = tested on: OVCAR-3 ovarian
# HL-60(TB) leukemia = tested on: HL-60(TB) leukemia
# UO-31 renal = tested on: UO-31 renal
# MALME-3M melanoma = tested on: MALME-3M melanoma
# HOP-62 NSCLC = tested on: HOP-62 NSCLC
# SF-268 CNS = tested on: SF-268 CNS
# COLO 205 colon = tested on: COLO 205 colon
# SK-MEL-28 melanoma = tested on: SK-MEL-28 melanoma
# KM12 colon = tested on: KM12 colon
# DMS 114 small cell lung = tested on: DMS 114 small cell lung
# SK-OV-3 ovarian = tested on: SK-OV-3 ovarian
# NCI-H522 lung = tested on: NCI-H522 lung
# 786-0 renal = tested on: 786-0 renal
# RXF-631 renal = tested on: RXF-631 renal
# SNB-75 CNS = tested on: SNB-75 CNS
# SF-539 CNS = tested on: SF-539 CNS
# HOP-18 NSCLC = tested on: HOP-18 NSCLC
# SK-MEL-5 melanoma = tested on: SK-MEL-5 melanoma
# SF-295 CNS = tested on: SF-295 CNS
# RPMI-8226 leukemia = tested on: RPMI-8226 leukemia
# SN12C renal = tested on: SN12C renal
# HCT-15 colon = tested on: HCT-15 colon
# SK-MEL-2 melanoma = tested on: SK-MEL-2 melanoma
# EKVX NSCLC = tested on: EKVX NSCLC
# OVCAR-4 ovarian = tested on: OVCAR-4 ovarian
# A498 renal = tested on: A498 renal
# HCC-2998 colon = tested on: HCC-2998 colon
# M19-MEL melanoma = tested on: M19-MEL melanoma
# SNB-78 CNS = tested on: SNB-78 CNS
# KM20L2 colon = tested on: KM20L2 colon
# UACC-62 melanoma = tested on: UACC-62 melanoma
# ACHN renal = tested on: ACHN renal
# XF 498 CNS = tested on: XF 498 CNS
# NCI-H460 lung = tested on: NCI-H460 lung
# DMS 273 small cell lung = tested on: DMS 273 small cell lung
# K-562 leukemia = tested on: K-562 leukemia
# A549 NSCLC = tested on: A549 NSCLC
# MOLT-4 leukemia = tested on: MOLT-4 leukemia
# CAKI-1 renal = tested on: CAKI-1 renal
# RXF 393 renal = tested on: RXF 393 renal
# DLD-1 colon = tested on: DLD-1 colon
# IGROV1 ovarian = tested on: IGROV1 ovarian
# HCT-116 colon = tested on: HCT-116 colon
# OVCAR-8 ovarian = tested on: OVCAR-8 ovarian
# UACC-257 melanoma = tested on: UACC-257 melanoma
# TK-10 renal = tested on: TK-10 renal
# U251 CNS = tested on: U251 CNS
# SW-620 colon = tested on: SW-620 colon
# NCI-H23 lung = tested on: NCI-H23 lung
# M14 melanoma = tested on: M14 melanoma
# SNB-19 CNS = tested on: SNB-19 CNS
# OVCAR-5 ovarian = tested on: OVCAR-5 ovarian
# LOX IMVI melanoma = tested on: LOX IMVI melanoma
# NCI-H226 lung = tested on: NCI-H226 lung
# HT29 colon = tested on: HT29 colon
# HOP-92 NSCLC = tested on: HOP-92 NSCLC
# SR leukemia = tested on: SR leukemia
structure (smiles),measurement,setting,value
O=C(O)C1(C(=O)O)CC1,TGI,LXFL 529 NSCLC,> 100 µM
same,TGI,CCRF-CEM leukemia,> 100 µM
same,TGI,OVCAR-3 ovarian,> 100 µM
same,TGI,HL-60(TB) leukemia,> 100 µM
same,TGI,UO-31 renal,> 100 µM
same,TGI,MALME-3M melanoma,> 100 µM
same,TGI,HOP-62 NSCLC,> 100 µM
same,TGI,SF-268 CNS,> 100 µM
same,TGI,COLO 205 colon,> 100 µM
same,TGI,SK-MEL-28 melanoma,> 100 µM
same,TGI,KM12 colon,> 100 µM
same,TGI,DMS 114 small cell lung,> 100 µM
same,TGI,SK-OV-3 ovarian,> 100 µM
same,TGI,NCI-H522 lung,> 100 µM
same,TGI,786-0 renal,> 100 µM
same,TGI,RXF-631 renal,> 100 µM
same,TGI,SNB-75 CNS,> 100 µM
same,TGI,SF-539 CNS,> 100 µM
same,TGI,HOP-18 NSCLC,> 100 µM
same,TGI,SK-MEL-5 melanoma,> 100 µM
same,TGI,SF-295 CNS,> 100 µM
same,TGI,RPMI-8226 leukemia,> 100 µM
same,TGI,SN12C renal,> 100 µM
same,TGI,HCT-15 colon,> 100 µM
same,TGI,SK-MEL-2 melanoma,> 100 µM
same,TGI,EKVX NSCLC,> 100 µM
same,TGI,OVCAR-4 ovarian,> 100 µM
same,TGI,A498 renal,> 100 µM
same,TGI,HCC-2998 colon,> 100 µM
same,TGI,M19-MEL melanoma,> 100 µM
same,TGI,SNB-78 CNS,> 100 µM
same,TGI,KM20L2 colon,> 100 µM
same,TGI,UACC-62 melanoma,> 100 µM
same,TGI,ACHN renal,> 100 µM
same,TGI,XF 498 CNS,> 100 µM
same,TGI,NCI-H460 lung,> 100 µM
same,TGI,DMS 273 small cell lung,> 100 µM
same,TGI,K-562 leukemia,> 100 µM
same,TGI,A549 NSCLC,> 100 µM
same,TGI,MOLT-4 leukemia,> 100 µM
same,TGI,CAKI-1 renal,> 100 µM
same,TGI,RXF 393 renal,> 100 µM
same,TGI,DLD-1 colon,> 100 µM
same,TGI,IGROV1 ovarian,> 100 µM
same,TGI,HCT-116 colon,> 100 µM
same,TGI,OVCAR-8 ovarian,> 100 µM
same,TGI,UACC-257 melanoma,> 100 µM
same,TGI,TK-10 renal,> 100 µM
same,TGI,U251 CNS,> 100 µM
same,TGI,SW-620 colon,> 100 µM
same,TGI,NCI-H23 lung,> 100 µM
same,TGI,M14 melanoma,> 100 µM
same,TGI,SNB-19 CNS,> 100 µM
Cc1ccc(NC(=O)CC/C(CC(=O)C(C)(C)C)=N/Nc2nnc(C)n2N)cc1C,TGI,LXFL 529 NSCLC,> 100 µM
same,TGI,CCRF-CEM leukemia,> 100 µM
same,TGI,OVCAR-3 ovarian,> 100 µM
same,TGI,HL-60(TB) leukemia,> 100 µM
same,TGI,UO-31 renal,> 100 µM
same,TGI,OVCAR-5 ovarian,> 100 µM
same,TGI,MALME-3M melanoma,> 100 µM
same,TGI,HOP-62 NSCLC,> 100 µM
same,TGI,SF-268 CNS,> 100 µM
same,TGI,COLO 205 colon,> 100 µM
same,TGI,SK-MEL-28 melanoma,> 100 µM
same,TGI,KM12 colon,> 100 µM
same,TGI,DMS 114 small cell lung,> 100 µM
same,TGI,SK-OV-3 ovarian,> 100 µM
same,TGI,NCI-H522 lung,> 100 µM
same,TGI,786-0 renal,> 100 µM
same,TGI,RXF-631 renal,> 100 µM
same,TGI,SNB-75 CNS,> 100 µM
same,TGI,SF-539 CNS,> 100 µM
same,TGI,HOP-18 NSCLC,> 100 µM
same,TGI,LOX IMVI melanoma,> 100 µM
same,TGI,SK-MEL-5 melanoma,> 100 µM
same,TGI,SF-295 CNS,> 100 µM
same,TGI,RPMI-8226 leukemia,> 100 µM
same,TGI,SN12C renal,> 100 µM
same,TGI,NCI-H226 lung,> 100 µM
same,TGI,HCT-15 colon,> 100 µM
same,TGI,SK-MEL-2 melanoma,> 100 µM
same,TGI,EKVX NSCLC,> 100 µM
same,TGI,A498 renal,> 100 µM
same,TGI,HCC-2998 colon,> 100 µM
same,TGI,HT29 colon,> 100 µM
same,TGI,M19-MEL melanoma,> 100 µM
same,TGI,SNB-78 CNS,> 100 µM
same,TGI,KM20L2 colon,> 100 µM
same,TGI,UACC-62 melanoma,> 100 µM
same,TGI,ACHN renal,> 100 µM
same,TGI,XF 498 CNS,> 100 µM
same,TGI,NCI-H460 lung,> 100 µM
same,TGI,DMS 273 small cell lung,> 100 µM
same,TGI,HOP-92 NSCLC,> 100 µM
same,TGI,K-562 leukemia,> 100 µM
same,TGI,A549 NSCLC,> 100 µM
same,TGI,MOLT-4 leukemia,> 100 µM
same,TGI,CAKI-1 renal,> 100 µM
same,TGI,RXF 393 renal,> 100 µM
same,TGI,IGROV1 ovarian,> 100 µM
same,TGI,SR leukemia,> 100 µM
same,TGI,HCT-116 colon,> 100 µM
same,TGI,OVCAR-8 ovarian,> 100 µM
same,TGI,UACC-257 melanoma,> 100 µM
same,TGI,TK-10 renal,> 100 µM
same,TGI,U251 CNS,> 100 µM
same,TGI,SW-620 colon,> 100 µM
same,TGI,NCI-H23 lung,> 100 µM
same,TGI,M14 melanoma,> 100 µM
same,TGI,SNB-19 CNS,> 100 µM
Cc1ccc(Nc2nc3c(s2)C(=O)c2ccccc2C3=O)cc1,TGI,LXFL 529 NSCLC,3 µM
same,TGI,CCRF-CEM leukemia,5.04 µM
same,TGI,OVCAR-3 ovarian,4.87 µM
same,TGI,HL-60(TB) leukemia,0.602 µM
same,TGI,UO-31 renal,4.12 µM
same,TGI,OVCAR-5 ovarian,3.5 µM
same,TGI,MALME-3M melanoma,3.39 µM
same,TGI,HOP-62 NSCLC,20 µM
same,TGI,SF-268 CNS,5.66 µM
same,TGI,COLO 205 colon,26.9 µM
same,TGI,SK-MEL-28 melanoma,2.99 µM
same,TGI,KM12 colon,3.44 µM
same,TGI,DMS 114 small cell lung,3.28 µM
same,TGI,SK-OV-3 ovarian,40.1 µM
same,TGI,NCI-H522 lung,3.25 µM
same,TGI,786-0 renal,3.37 µM
same,TGI,RXF-631 renal,3.8 µM
same,TGI,SNB-75 CNS,5.03 µM
same,TGI,SF-539 CNS,17.7 µM
same,TGI,HOP-18 NSCLC,3.19 µM
same,TGI,LOX IMVI melanoma,3.11 µM
same,TGI,SK-MEL-5 melanoma,3.43 µM
same,TGI,SF-295 CNS,2.99 µM
same,TGI,RPMI-8226 leukemia,3.74 µM
same,TGI,SN12C renal,3.4 µM
same,TGI,NCI-H226 lung,33.9 µM
same,TGI,HCT-15 colon,4.29 µM
same,TGI,SK-MEL-2 melanoma,3.94 µM
same,TGI,EKVX NSCLC,16 µM
same,TGI,OVCAR-4 ovarian,2.89 µM
same,TGI,A498 renal,30.9 µM
same,TGI,HCC-2998 colon,3.58 µM
same,TGI,HT29 colon,11.2 µM
same,TGI,M19-MEL melanoma,1.05 µM
same,TGI,SNB-78 CNS,5.82 µM
same,TGI,KM20L2 colon,38.9 µM
same,TGI,UACC-62 melanoma,3.92 µM
same,TGI,ACHN renal,3.21 µM
same,TGI,XF 498 CNS,3.76 µM
same,TGI,DMS 273 small cell lung,3.75 µM
same,TGI,HOP-92 NSCLC,14.3 µM
same,TGI,K-562 leukemia,7.19 µM
same,TGI,A549 NSCLC,4.86 µM
same,TGI,MOLT-4 leukemia,3.83 µM
same,TGI,CAKI-1 renal,3 µM
same,TGI,DLD-1 colon,4.26 µM
same,TGI,IGROV1 ovarian,3.73 µM
same,TGI,OVCAR-8 ovarian,5.07 µM
same,TGI,UACC-257 melanoma,3.2 µM
same,TGI,TK-10 renal,18.9 µM
same,TGI,U251 CNS,3.42 µM
same,TGI,NCI-H23 lung,4.33 µM
same,TGI,M14 melanoma,3.25 µM
same,TGI,SNB-19 CNS,3.33 µM
